From patent US11612595B2, “Compositions and methods for treating rheumatoid arthritis” (Generos Biopharma Ltd., priority 2017, dated 2023)

How the values were obtained:
[1] = weight changes in mouse CIA model; type: in vivo, DBA/1J mice
Procedure: FIGS. 7A and 78 show graphs depicting weight changes in five groups of mouse CIA models under different treatment schemes. DBA/1 mice were randomly divided into 9 groups with 10 mice each group. On day 0 and 21, all of them except blank control group were inoculated with 50 ul collagen plus CFA mixture subcutaneously at back flank near tail. The weights of all 90 mice were monitored 3 times a week throughout the experiment.
Eight of nine groups (10 mice in each group) of male DBA/1J mice (age 9-10 weeks. H-2q haplotype) were subject to CIA model induction and then to different treatment schemes. The group of mice without CIA model induction was used as a control (Blank). Specifically, Bovine type II collagen (Chondrex) was mixed with Freund's complete adjuvant (CFA) (Sigma) and injected s.c. to flank near tail of the mice twice (the second injection was made 21 days after the first injection) to create CIA model mice. The eight groups of CIA model mice were separated into four prophylactic groups and four therapeutic groups, with each group subjected to different treatments.
In the four prophylactic groups, daily treatments started from the date when the first CIA induction injection was made. The first of the four prophylactic groups of CIA model mice were treated with 30% PEG300 (containing 4% DMSO-all 30% PEG300 in the application contains 4% DMSO) solution via intraperitoneal injection as controls (Model). The second of the four prophylactic groups of CIA model mice were treated with nicotinohydrazide (Calbiochem) 10 mg/kg in 30% PEG300 solution via intraperitoneal injection (573108 10 mg/kg). The third of the four prophylactic groups of CIA model mice were treated with nicotinohydrazide (Calbiochem) 5 mg/kg in 30% PEG300 solution via intraperitoneal injection (573108 5 mg/kg). The last of the four prophylactic groups of CIA model mice were treated with Tofacitinib (Selleckchem) 5 mg/kg in 30% PEG300 solution via intraperitoneal injection (Tofacitinib 5 mg/kg).
In the four therapeutic groups, daily treatments started from the date when the second CIA induction injection was made. The first of the four therapeutic groups of CIA model mice were treated with 30% PEG300 solution via intraperitoneal injection as controls (Model). The second of the four therapeutic groups of CIA model mice were treated with nicotinohydrazide (Calbiochem) 10 mg/kg in 30% PEG300 solution via intraperitoncal injection (573108 10 mg/kg). The third of the four therapeutic groups of CIA model mice were treated with nicotinohydrazide (Calbiochem) 5 mg/kg in 30% PEG300 solution via intraperitoneal injection (573108 5 mg/kg). The last of the four therapeutic groups of CIA model mice were treated with Tofacitinib (Selleckchem) 5 mg/kg in 30% PEG300 solution via intraperitoncal injection (Tofacitinib 5 mg/kg).
The inventors collected data of the weight, and clinical scores of the mice every 2-3 days and performed statistic analysis. The method used in the statistic analysis was Student's t test, unpaired, two-tailed analysis.

STAT5b SH2 domain = target: T1, STAT5b SH2 domain (Homo sapiens, UniProt P51692); conditions: read-out: IC50 against STAT5b SH2 domain EPO peptide binding activity; cited from earlier work
T1 sequence (P51692 1-787): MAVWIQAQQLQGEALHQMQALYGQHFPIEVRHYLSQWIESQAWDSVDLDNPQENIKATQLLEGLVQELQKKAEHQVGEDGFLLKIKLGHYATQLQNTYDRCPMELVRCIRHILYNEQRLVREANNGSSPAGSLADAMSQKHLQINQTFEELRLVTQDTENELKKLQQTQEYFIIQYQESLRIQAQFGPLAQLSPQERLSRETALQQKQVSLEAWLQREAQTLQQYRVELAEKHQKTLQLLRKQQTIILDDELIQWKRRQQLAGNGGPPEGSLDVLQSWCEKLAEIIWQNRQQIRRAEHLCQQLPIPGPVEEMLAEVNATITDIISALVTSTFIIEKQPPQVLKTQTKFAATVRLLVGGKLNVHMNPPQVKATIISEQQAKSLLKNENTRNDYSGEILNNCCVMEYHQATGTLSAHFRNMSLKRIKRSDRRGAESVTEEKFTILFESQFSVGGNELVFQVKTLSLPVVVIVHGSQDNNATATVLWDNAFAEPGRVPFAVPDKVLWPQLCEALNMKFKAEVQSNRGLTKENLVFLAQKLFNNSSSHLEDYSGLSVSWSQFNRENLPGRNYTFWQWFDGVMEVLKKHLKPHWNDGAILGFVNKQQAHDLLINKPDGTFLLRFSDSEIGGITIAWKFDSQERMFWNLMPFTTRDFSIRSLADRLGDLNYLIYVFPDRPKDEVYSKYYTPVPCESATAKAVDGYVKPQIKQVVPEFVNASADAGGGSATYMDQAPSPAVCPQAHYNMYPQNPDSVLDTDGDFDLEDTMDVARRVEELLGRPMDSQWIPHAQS

STAT1 = target: T2, STAT1 (Homo sapiens, UniProt P42224); conditions: K562 cells, 10 μM 1 h pretreatment; cited from earlier work
T2 sequence (P42224 1-750): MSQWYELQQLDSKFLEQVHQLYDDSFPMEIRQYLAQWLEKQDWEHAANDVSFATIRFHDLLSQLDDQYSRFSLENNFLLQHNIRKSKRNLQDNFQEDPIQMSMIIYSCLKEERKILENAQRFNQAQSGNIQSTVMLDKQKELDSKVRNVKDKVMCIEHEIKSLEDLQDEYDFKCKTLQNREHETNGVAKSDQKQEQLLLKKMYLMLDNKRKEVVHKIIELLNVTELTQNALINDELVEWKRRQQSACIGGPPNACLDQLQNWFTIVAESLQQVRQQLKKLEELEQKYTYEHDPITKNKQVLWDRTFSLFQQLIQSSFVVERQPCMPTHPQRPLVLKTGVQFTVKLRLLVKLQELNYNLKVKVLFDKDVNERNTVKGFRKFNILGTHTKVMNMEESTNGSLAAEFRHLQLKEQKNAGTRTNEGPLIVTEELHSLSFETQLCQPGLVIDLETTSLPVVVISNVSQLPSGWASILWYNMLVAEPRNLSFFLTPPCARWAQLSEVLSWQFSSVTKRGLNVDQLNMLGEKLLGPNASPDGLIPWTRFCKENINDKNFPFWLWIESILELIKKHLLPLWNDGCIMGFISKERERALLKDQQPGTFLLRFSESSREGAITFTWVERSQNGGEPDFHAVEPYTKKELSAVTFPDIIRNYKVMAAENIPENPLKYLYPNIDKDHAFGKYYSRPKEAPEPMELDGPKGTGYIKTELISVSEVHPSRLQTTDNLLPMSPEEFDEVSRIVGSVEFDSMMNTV

[2] = prophylactic groups, 5 mg/kg i.p. daily
[3] = prophylactic groups, 10 mg/kg i.p. daily
[4] = therapeutic groups, 5 mg/kg i.p. daily

| trend of weight changes, p vs Model [1, 2] | trend of weight changes, p vs Tofacitinib 5 mg/kg [1, 2] | trend of weight changes, p vs Model [1, 3] | trend of weight changes, p vs Tofacitinib 5 mg/kg [1, 3] | trend of weight changes, p vs Model [1, 4] | trend of weight changes, p vs Tofacitinib 5 mg/kg [1, 4] | trend of weight changes, p vs Model ([1]; therapeutic groups, 10 mg/kg i.p. daily) | SMILES | IC50 (STAT5b SH2 domain) [µM] | IFNα-stimulated STAT1 phosphorylation (STAT1) |
| --- | --- | --- | --- | --- | --- | --- | --- | --- | --- |
| 0.4638 | 0.0136 | 0.32 | 0.0207 | < 0.0001 | 0.0006 | < 0.0001 | O=C(N/N=C/c1coc2ccccc2c1=O)c1cccnc1 [nicotinohydrazide, N′-((4-Oxo-4H-chromen-3-yl)methylene)nicotinohydrazide] | 47 | – |
| – | – | – | – | – | – | – | O=c1[nH]c2ccccc2n1C1CCN(CCCC(c2ccc(F)cc2)c2ccc(F)cc2)CC1 [pimozide, 1-[1-[4,4-bis(4-fluorophenyl)butyl]-4-piperidinyl]-1,3-dihydro-2H-benzimidazole-2-one] | – | little activity |
